Results from patent publication US10966962B2, “Method for treating neurodegenerative diseases” (THE BOARD OF TRUSTEES OF THE LELAND STANFORD JUNIOR …, priority 2014, dated 2021).

Tested on: AD transgenic animals
Test: Nest building in 5XFAD AD transgenic animals
Format: in vivo, mice
Conditions: 25 mg/kg orally 3 times a week for 4 weeks, 7 weeks of age, vs 5XFAD-Ctrl
Procedure: As described in Example 7, nest-building skill is one of the most reliable measurements of motor function. In this test, AD transgenic animals were orally treated 3 times a week for 4 weeks with 0.5% methylcellulose or ZLN005 (Sigma) at 25 mg/kg in 0.5% methylcellulose, starting at 3 weeks of age. At 7 weeks of age, animals were given cotton pads and the amount of cotton that was shredded over a 24-hour period was measured. […] Unpaired t-test was used for statistical analysis.

CC(C)(C)c1ccc(-c2nc3ccccc3[nH]2)cc1 [ZLN005, 2-(4-tert-butylphenyl)-1H-benzimidazole]
nest building, amount of cotton shredded over 24 hours: significantly increased the amount of cotton shredded
